Results taken from EP3592343B1, “CANCER IMMUNOTHERAPY USING VIRUS PARTICLES” (Case Western Reserve University, priority 2017, dated 2018).

Tests used:
[1] = system: A2780 human ovarian cancer; experiment: MTT cytotoxicity evaluation, A2780; type: cell-based
Description: (§1) A2780, a gift from Dr. Analisa DiFeo (Case Western Reserve University) were cultured in Dulbecco's modified Eagle's media (DMEM, Life Technologies), supplemented with 10% (v/v) fetal bovine serum (FBS, Atlanta Biologicals) and 1% (v/v) penicillin-streptomycin (penstrep, Life Technologies). HeLa (ATCC) were cultured in minimum essential media (MEM, Life Technologies), supplemented with 10% (v/v) FBS, 1% (v/v) penstrep, and 1% (v/v) L-glutamine (Life Technologies). MDA-MB-231, a gift from Dr. Ruth Keri (Case Western Reserve University), were cultured in Roswell Park Memorial Institute (RPMI, Life Technologies) medium supplemented with 10% (v/v) FBS, 1% (v/v) penstrep, and 1% (v/v) L-glutamine. All cells were maintained at 37°C and 5% CO2.
(§2) Confluent cells were removed with 0.05% (w/v) trypsin-EDTA (Life Technologies), seeded at either 2 × 10^3 cells/100 µL/well (MDA-MB-231 and HeLa) or 5 × 10^3 cells/100 µL/well (A2780) in 96-well plates and grown overnight at 37°C, 5% CO2. The next day, cells were washed 2 times with PBS and incubated with free DOX, PVX-DOX, or PEG-PVX-DOX corresponding to 0, 0.01, 0.05, 0.1, 0.5, 1, 5, or 10 µM (A2780, MDA-MB-231) or 0, 0.1, 0.5, 1, 5, 10, 25, or 50 µM (HeLa) DOX for 24 h, in triplicate. A PVX only control corresponded to the amount of PVX in the highest PVX-DOX sample. Following incubation, cells were washed 2 times to remove unbound DOX or particles. […]

A2780 cells = experiment: tracking of free DOX and PVX-DOX in cells (fluorescence microscopy); type: cell-based, human; details: 1.5 µM DOX, at 48 h
Description: A2780 cells were grown to confluency and removed with 0.05% (w/v) trypsin-EDTA. Cells were seeded at 1 × 10^4 cells/500 µL/well on coverslips in untreated 24-well plates and grown overnight at 37°C, 5% CO2. The next day, cells were washed 3 times and incubated with free DOX or PVX-DOX (1.5 µM DOX) for 2, 4, 12, 24, or 48 h. Following incubation, cells were washed 3 times and fixed in DPBS (Corning) containing 5% (v/v) paraformaldehyde (Electron Microscopy Sciences) and 0.3% (v/v) glutaraldehyde (Polysciences) for 10 min at room temperature. Coverslips were mounted using Fluoroshield (Sigma). Slides were imaged on a Zeiss Axio Observer Z1 motorized FL inverted microscope. Fluorescence intensity was analysed as follows using ImageJ 1.47d. All images were identically processed prior to fluorescence intensity measurement. Nuclei were selected and analyzed for fluorescence intensity using the measure feature of ImageJ. For each sample, a minimum of 3 images was analyzed and at least 4 cells were analyzed per image.

MDA-MB-231 tumors = experiment: MDA-MB-231 tumor-bearing athymic mouse model, intravenous treatment; type: in vivo, NCR nu/nu mice; details: 1 mg/kg DOX i.v. every 5 days
Description: All experiments were conducted in accordance with Case Western Reserve University's Institutional Animal Care and Use Committee. Female NCR nu/nu mice (6 weeks old) were injected subcutaneously into the right flank with 2 × 10^6 MDA-MB-231 cells suspended in 100 µL of media and Matrigel (Corning) at a 1:1 ratio. When tumors reached 100-200 mm^3, a dosage of 1.0 mg/kg body weight DOX was injected intravenously (this dosage corresponds to 1.0 - 2.0 mg PVX depending on batches). Groups of 4 animals each were treated with PEG-PVX-DOX, free DOX, or PBS. The dosage was normalized to the DOX content. Treatments were performed every 5 days, and a total of 5 treatments was given.
Tumors were measured daily and total volume was calculated using the formula: v = (l × w^2)/2. Mice were euthanized following 25 days of treatment.

[2] = system: MDA-MB-231 human breast cancer; experiment: MTT cytotoxicity evaluation, MDA-MB-231; type: cell-based; details: MDA-MB-231, 24 h exposure then 48 h, MTT assay
Description: as §1, §2

B16F10 melanoma cells = experiment: MTT cell viability assay, B16F10; type: cell-based, murine; details: Mus musculus, B16-F10, 24 h exposure then 48 h
Description: B16F10 cells (ATCC) were cultured in Dulbecco's modified Eagle's media (DMEM, Life Technologies), supplemented with 10% (v/v) fetal bovine serum (FBS, Atlanta Biologicals) and 1% (v/v) penicillin-streptomycin (penstrep, Life Technologies). Cells were maintained at 37°C, 5% CO2. Confluent cells were removed with 0.05% (w/v) trypsin-EDTA (Life Technologies), seeded at 2 x 10^3 cells/100µL/well in 96-well plates, and grown overnight at 37°C, 5% CO2. The next day, cells were washed 2 times with PBS and incubated with free DOX or PVX-DOX corresponding to 0, 0.01, 0.05, 0.1, 0.5, 1, 5, or 10 µM DOX for 24 h, in triplicate. A PVX only control corresponded to the amount of PVX in the highest PVX-DOX sample. Following incubation, cells were washed 2 times to remove unbound DOX or particles. Fresh medium (100 µL) was added and cells were returned to the […] incubator for 48 h.

[3] = system: HeLa human cervical cancer; experiment: MTT cytotoxicity evaluation, HeLa; type: cell-based; details: 24 h exposure then 48 h, MTT assay
Description: as §1, §2

SMILES: COc1cccc2c1C(=O)c1c(O)c3c(c(O)c1C2=O)C[C@@](O)(C(=O)CO)C[C@@H]3O[C@H]1C[C@H](N)[C@H](O)[C@H](C)O1 [DOX, doxorubicin]
- cell killing effectiveness relative to PVX-DOX ([1]; A2780, MTT assay): 4 times
- IC50 ([1]; Homo sapiens, A2780, 24 h exposure then 48 h, MTT assay): 220 nM
- drug-induced apoptosis (A2780 cells): apparent
- day post first treatment from which differences to PBS were statistically significant (MDA-MB-231 tumors; p<0.05): > 22 days
- tumor volumes smaller than the PBS control (MDA-MB-231 tumors; at the end of the treatment, 5 injections): 2.1 times
- IC50 [2]: 130 nM
- IC50 (B16F10 melanoma cells): 280 nM
- IC50 [3]: 1600 nM
